The results in this text go back to patent US11083199B2, “Heterocycle derivatives as pesticides” (Bayer Aktiengesellschaft, priority 2017, dated 2021).

Type in all cases: in vivo
For assay [1], the system named is Myzus persicae. The assay can be described thus: Myzus persicae oral test. Particulars: 120 h, application rate 4 ppm, after 5 days, read-out: efficacy. The procedure:
[table] To produce a suitable active ingredient formulation, 1 part by weight of active ingredient is dissolved with the stated parts by weight of solvent and made up to the desired concentration with water. 50 μl of the active ingredient formulation are transferred into microtitre plates and made up to a final volume of 200 μl with 150 μl of IPL41 insect medium (33%+15% sugar). Subsequently, the plates are sealed with parafilm, which a mixed population of green peach aphids (Myzus persicae) within a second microtitre plate is able to puncture and imbibe the solution. After 5 days, the efficacy in % is determined. 100% means that all the aphids have been killed; 0% means that no aphids have been killed.

Assay [2] deals with Myzus persicae. The assay can be described thus: Myzus persicae spray test. As to conditions: foliar, 120 h, application rate 100 g/ha, Chinese cabbage leaf discs, after 5 days, read-out: efficacy. How it is done:
(§1) [table] To produce a suitable active ingredient formulation, 1 part by weight of active ingredient is dissolved with the specified parts by weight of solvent and made up to the desired concentration with water containing an emulsifier concentration of 1000 ppm. To produce further test concentrations, the formulation is diluted with emulsifier-containing water. Discs of Chinese cabbage leaves (Brassica pekinensis) infested by all stages of the green peach aphid (Myzus persicae) are sprayed with an active ingredient formulation of the desired concentration. After 5 days, the efficacy in % is determined. 100% means that all the aphids have been killed; 0% means that no aphids have been killed.

Another assay has as its system Phaedon cochleariae. The assay can be described thus: Phaedon cochleariae spray test. Particulars: 168 h, application rate 100 g/ha, larvae, after 7 days, read-out: efficacy. How it is done:
as §1, with “pekinensis)” for “pekinensis) infested by all stages of the green peach aphid (Myzus persicae)”, “concentration and, after drying, populated with larvae of the mustard beetle (Phaedon cochleariae).” for “concentration.”, “7” for “5”, “beetle larvae” for “aphids”

For the molecule `CCS(=O)(=O)c1c(-c2nc3cc(C(F)(F)F)ncc3n2C)nc(Br)n1C(C)C` [Example I-002], the pest or weed control at 4 ppm in the assay with Myzus persicae [1] is 100%. As for `CCS(=O)(=O)c1c(-c2nc3cc(C(F)(F)F)ncc3n2C)nc(Br)n1C` [Example I-004, 2-[2-Bromo-5-(ethylsulfonyl)-1-methyl-1H-imidazol-4-yl]-3-methyl-6-(trifluoromethyl)-3H-imidazo[4,5-c]pyridine], in the assay with Myzus persicae [1], the pest or weed control at 4 ppm turned out to be 100%. Regarding `CCS(=O)(=O)c1c(-c2nc3cc(C(F)(F)F)ncc3n2C)nc(-c2cnccc2F)n1C` [Example I-017], in the assay on Myzus persicae [1], the pest or weed control at 4 ppm worked out at 100%. Besides, the pest or weed control at 100 g/ha in the assay on Myzus persicae [2] turned out to be 100%. In the case of `CCS(=O)(=O)c1c(-c2nc3cc(C(F)(F)F)ncc3n2C)nc(-n2cccn2)n1C` [Example I-026], the pest or weed control at 100 g/ha amounted to 100% with Phaedon cochleariae and 90% in the assay with Myzus persicae [2]. For the same molecule, the pest or weed control at 4 ppm in the assay on Myzus persicae [1] was found to be 100%. Take `CCS(=O)(=O)c1c(-c2nc3cc(C(F)(F)F)ncc3n2C)nc(-n2ccnc2)n1C` [Example I-028]: the pest or weed control at 100 g/ha is 100% with Phaedon cochleariae and 90% in the assay on Myzus persicae [2]. For the same molecule, in the assay on Myzus persicae [1], the pest or weed control at 4 ppm amounted to 100%. Consider `CCS(=O)(=O)c1c(-c2nc3cc(C(F)(F)F)ncc3n2C)nc(-c2cc(Cl)sc2Cl)n1C` [Example I-031], for which the pest or weed control at 4 ppm in the assay with Myzus persicae [1] was 100%. For the molecule `CCS(=O)(=O)c1c(-c2nc3cc(C(F)(F)F)ncc3n2C)nc(-c2cccn2C)n1C` [Example I-032], the pest or weed control at 4 ppm in the assay on Myzus persicae [1] was 100%. As for `CCS(=O)(=O)c1c(-c2nc3cc(C(F)(F)F)ncc3n2C)nc(-c2cn[nH]c2)n1C` [Example I-034], in the assay on Myzus persicae [1], the pest or weed control at 4 ppm came to 100%. Besides, the pest or weed control at 100 g/ha in the assay on Myzus persicae [2] was determined as 90%. Take `CCSc1c(-c2nc3cc(C(F)(F)F)ncc3n2C)nc(C(=O)OC)n1C` [Example I-035, Methyl 5-(ethylsulfanyl)-1-methyl-4-[3-methyl-6-(trifluoromethyl)-3H-imidazo[4,5-c]pyridin-2-yl]-1H-imidazole-2-carboxylate]: the pest or weed control at 100 g/ha in the assay with Phaedon cochleariae was 83%. Consider `CCS(=O)(=O)c1c(-c2nc3cc(C(F)(F)F)ncc3n2C)nc(C(=O)OC)n1C` [Example I-036, Methyl 5-(ethylsulfonyl)-1-methyl-4-[3-methyl-6-(trifluoromethyl)-3H-imidazo[4,5-c]pyridin-2-yl]-1H-imidazole-2-carboxylate], for which the pest or weed control at 100 g/ha with Phaedon cochleariae and with Myzus persicae [2] was 100% throughout. In addition, the pest or weed control at 4 ppm in the assay with Myzus persicae [1] was 100%.

Turning to `CCS(=O)(=O)c1c(-c2nc3cc(C(F)(F)F)ncc3n2C)nc(C(=O)NCC(F)(F)F)n1C` [Example I-037], the pest or weed control at 4 ppm in the assay with Myzus persicae [1] is 90%.

On to `CCS(=O)(=O)c1c(-c2nc3cc(C(F)(F)F)ncc3n2C)nc(-c2cccs2)n1C` [Example I-044], for which the pest or weed control at 4 ppm in the assay on Myzus persicae [1] worked out at 100%. The same measure, in the same setting: for `CCS(=O)(=O)c1c(-c2nc3cc(C(F)(F)F)ncc3n2C)nc(C#N)n1C` [Example I-045, 5-(Ethylsulfonyl)-1-methyl-4-[3-methyl-6-(trifluoromethyl)-3H-imidazo[4,5-c]pyridin-2-yl]-1H-imidazole-2-carbonitrile] the value was 100%.

Consider `CCS(=O)(=O)c1c(-c2nc3cc(C(F)(F)F)ncc3n2C)nc(C(=S)NC)n1C` [Example I-047], for which the pest or weed control at 4 ppm in the assay with Myzus persicae [1] came to 100%. The pest or weed control at 100 g/ha in the assay with Myzus persicae [2] was determined as 100%. For `CCS(=O)(=O)c1c(-c2nc3cc(C(F)(F)F)ncc3n2C)nc(C(=S)N(C)C)n1C` [Example I-048], the pest or weed control at 4 ppm in the assay with Myzus persicae [1] was determined as 100%. Moreover, the pest or weed control at 100 g/ha in the assay with Myzus persicae [2] is 90%. Consider `CCS(=O)(=O)c1c(-c2nc3cc(C(F)(F)F)ncc3n2C)nc(-c2cncs2)n1C` [Example I-051], for which the pest or weed control at 4 ppm with Myzus persicae [1] was determined as 100%. Further, the pest or weed control at 100 g/ha in the assay with Myzus persicae [2] was determined as 90%.

On to `CCS(=O)(=O)c1c(-c2nc3cc(C(F)(F)F)ncc3n2C)nc(-c2cncn2C)n1C` [Example I-052], for which, in the assay with Myzus persicae [1], the pest or weed control at 4 ppm worked out at 100%. Still for that read-out and setting: the figure for `CCS(=O)(=O)c1c(-c2nc3cc(C(F)(F)F)ncc3n2C)nc(-c2nccn2C)n1C` [Example I-053] is 100%. Same read-out and setting: for `CCS(=O)(=O)c1c(-c2nc3cc(C(F)(F)F)nnc3n2C)nc(Br)n1C` [Example I-056] the value was 100%.

As for `CCS(=O)(=O)c1c(-c2nc3cc(C(F)(F)F)ncc3n2C)nc(-c2cnc(C)s2)n1C` [Example I-058], the pest or weed control at 4 ppm with Myzus persicae [1] amounted to 100%. Besides, in the assay with Myzus persicae [2], the pest or weed control at 100 g/ha came to 90%. As for `CCS(=O)(=O)c1c(-c2nc3cc(C(F)(F)F)ncc3n2C)nc(-c2cnc(Cl)n2C)n1C` [Example I-059], the pest or weed control at 100 g/ha in the assay on Phaedon cochleariae and in the assay with Myzus persicae [2] was 100% in each case. Also, the pest or weed control at 4 ppm with Myzus persicae [1] came out at 100%. On to `CC(C)S(=O)(=O)c1c(-c2nc3cc(C(F)(F)F)ncc3n2C)nc(-c2ccn(C)n2)n1C` [Example I-061], for which the pest or weed control at 100 g/ha with Phaedon cochleariae and in the assay on Myzus persicae [2] was 100% each time. Moreover, the pest or weed control at 4 ppm in the assay with Myzus persicae [1] worked out at 100%. Consider `CCS(=O)(=O)c1c(-c2nc3cc(C(F)(F)F)ncc3n2C)nc(-c2ccnn2C)n1C` [Example I-062], for which the pest or weed control at 100 g/ha in the assay on Phaedon cochleariae and in the assay on Myzus persicae [2] was 100% in each case. Besides, the pest or weed control at 4 ppm in the assay with Myzus persicae [1] was found to be 100%. Regarding `CCS(=O)(=O)c1c(-c2nc3cc(C(F)(F)F)ncc3n2C)nc(C)n1C` [Example I-064], the pest or weed control at 100 g/ha in the assay on Phaedon cochleariae was 83%; with Myzus persicae [2], 100%. Further, in the assay with Myzus persicae [1], the pest or weed control at 4 ppm is 100%. Turning to `CCS(=O)(=O)c1c(-c2nc3cc(C(F)(F)F)ncc3n2C)nc(-c2ccc(CC#N)cc2)n1C` [Example I-065], the pest or weed control at 4 ppm in the assay on Myzus persicae [1] is 100%. Besides, the pest or weed control at 100 g/ha in the assay on Myzus persicae [2] was found to be 100%.

`CCS(=O)(=O)c1c(-c2nc3cc(C(F)(F)F)ncc3n2C)nc(-c2cnn(CC(F)(F)F)c2)n1C` [Example I-067]: the pest or weed control at 100 g/ha with Phaedon cochleariae and with Myzus persicae [2] was 100% in each case. In addition, the pest or weed control at 4 ppm in the assay with Myzus persicae [1] came to 100%. For the molecule `CCS(=O)(=O)c1c(-c2nc3cc(C(F)(F)F)ncc3n2C)nc(-c2cc(C(F)(F)F)nn2C)n1C` [Example I-068], in the assay on Phaedon cochleariae, the pest or weed control at 100 g/ha is 100%. Besides, the pest or weed control at 4 ppm in the assay with Myzus persicae [1] worked out at 100%. Consider `CCS(=O)(=O)c1c(-c2nc3cc(C(F)(F)F)ncc3n2C)nc(C2=CCCCC2)n1C` [Example I-071], for which, in the assay on Myzus persicae [2], the pest or weed control at 100 g/ha was found to be 90%. For the molecule `CCS(=O)(=O)c1c(-c2nc3cc(C(F)(F)F)ncc3n2C)nc(C2=CCC(C(F)(F)F)CC2)n1C` (centres unmarked) [Example I-072], the pest or weed control at 4 ppm in the assay on Myzus persicae [1] is 100%. On to `CCS(=O)(=O)c1c(-c2nc3cc(C(F)(F)F)ncc3n2C)nc(-c2ccc(C#N)c(C(F)(F)F)c2)n1C` [Example I-080], for which, in the assay on Phaedon cochleariae, the pest or weed control at 100 g/ha turned out to be 100%. For the same molecule, in the assay on Myzus persicae [1], the pest or weed control at 4 ppm amounted to 100%. In the case of `CCc1nc(-c2nc3cc(C(F)(F)F)ncc3n2C)c(S(=O)(=O)CC)n1C` [Example I-084], the pest or weed control at 4 ppm in the assay on Myzus persicae [1] was found to be 100%. Also, in the assay on Myzus persicae [2], the pest or weed control at 100 g/ha amounted to 90%.

With `CCS(=O)(=O)c1c(-c2nc3cc(C(F)(F)F)ncc3n2C)nc(CCC2CC2)n1C` [Example I-085, 2-[2-(2-Cyclopropylethyl)-5-(ethylsulfonyl)-1-methyl-1H-imidazol-4-yl]-3-methyl-6-(trifluoromethyl)-3H-imidazo[4,5-c]pyridine], the pest or weed control at 4 ppm with Myzus persicae [1] was 100%. In addition, in the assay with Myzus persicae [2], the pest or weed control at 100 g/ha is 90%.
